Source: US6645983B1, “Pharmaceutical compositions comprising 4-quinolones for treating cancers” (Laboratoire L. Lafon, priority 1999, dated 2003)
Like-named read-outs stand apart in the source and are kept apart here.

Legend:
MCF7 = test: MTT test, cytotoxic activity on non-clonogenic cell lines; type: cell-based; conditions: Homo sapiens, 10^−5 M, mean value
Outline: (§1)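 Compounds span 10^−5 to 10^−10 M, with solvent-treated wells as control, and the formazan is quantified by absorbance after DMSO solubilization.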

T-47D = test: as above; type: cell-based; conditions: Homo sapiens, T47D, 10^−5 M, mean value
Outline: as §1

HCT-15 = test: as above; type: cell-based; conditions: Homo sapiens, mean value
Outline: as §1

A-427 = test: as above; type: cell-based; conditions: Homo sapiens, 10^−5 M, mean value
Outline: as §1

U-87MG = test: as above; type: cell-based; conditions: Homo sapiens, 10^−5 M, mean value
Outline: as §1

PC-3 = test: as above; type: cell-based; conditions: Homo sapiens, 10^−5 M, mean value
Outline: as §1

U-373MG = test: as above; type: cell-based; conditions: Homo sapiens, U373 MG, 10^−5 M, mean value
Outline: as §1

A549 = test: as above; type: cell-based; conditions: Homo sapiens, 10^−5 M, mean value
Outline: as §1

LoVo = test: as above; type: cell-based; conditions: Homo sapiens, 10^−5 M, mean value
Outline: as §1

[1] = Determination of the maximum tolerated dose (MTD); conditions: B6D2F1/Jico, mouse, in vivo, ip; single intraperitoneal administration, doses 2.5 to 160 mg/kg, survival over 14 days
Outline: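 Mice were 4- to 6-week-old B6D2F1/Jico. They received a single intraperitoneal dose of 2.5 to 160 mg/kg, and survival and body weight were followed for 14 days. MTD is given in mg/kg and is capped at 160 mg/kg by default.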

J82 = test: MTT test, cytotoxic activity on non-clonogenic cell lines; type: cell-based; conditions: Homo sapiens, 10^−5 M, mean value
Outline: (§2)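 Human bladder cancer lines were seeded at 20 000–50 000 cells/ml and, after 24 h, exposed to compounds at 10^−5 to 10^−10 M against a solvent control. Formazan was dissolved in DMSO and viability was read by spectrophotometric optical density.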

T24 = test: as above; type: cell-based; conditions: Homo sapiens, T-24, 10^−5 M, mean value
Outline: as §2

SW1088 = test: as above; type: cell-based; conditions: Homo sapiens, 10^−5 M, mean value
Outline: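 Human astrocytoma SW1088 cells seeded, grown 24 h at 37° C, 5% CO2, then exposed to compounds at 10^−5 to 10^−10 M versus solvent control. Viability by MTT reduction: 3 h MTT incubation, formazan dissolved in DMSO and read by spectrophotometry.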

[2] = 72 hours of incubation, control condition = 100%, read-out: mean optical density as percentage of control, MCF7
[3] = 72 hours of incubation, control condition = 100%, read-out: mean optical density as percentage of control, T-47D
[4] = 10^−5 M, 72 hours of incubation, control condition = 100%, read-out: mean optical density as percentage of control, HCT-16
[5] = 72 hours of incubation, control condition = 100%, read-out: mean optical density as percentage of control, A-427
[6] = U-87 MG, 72 hours of incubation, control condition = 100%, read-out: mean optical density as percentage of control, U-87MG
[7] = 72 hours of incubation, control condition = 100%, read-out: mean optical density as percentage of control, PC-3
[8] = 72 hours of incubation, control condition = 100%, read-out: mean optical density as percentage of control, U-373MG
[9] = 72 hours of incubation, control condition = 100%, read-out: mean optical density as percentage of control, A549
[10] = 72 hours of incubation, control condition = 100%, read-out: mean optical density as percentage of control, LoVo
[11] = 72 hours of incubation, control condition = 100%, read-out: mean optical density as percentage of control, J82
[12] = 72 hours of incubation, control condition = 100%, read-out: mean optical density as percentage of control, T24
[13] = 72 hours of incubation, control condition = 100%, read-out: mean optical density as percentage of control, SW1088
[14] = 72 hours incubation, MTT, read-out: mean optical density, expressed as percentage relative to the mean optical density under the control condition (100%)
[15] = T-47D, 72 hours incubation, MTT, read-out: mean optical density, expressed as percentage relative to the mean optical density under the control condition (100%)
[16] = HCT-16, 10^−5 M, 72 hours incubation, MTT, read-out: mean optical density, expressed as percentage relative to the mean optical density under the control condition (100%)
[17] = U-87MG, 72 hours incubation, MTT, read-out: mean optical density, expressed as percentage relative to the mean optical density under the control condition (100%)
[18] = U-373MG, 72 hours incubation, MTT, read-out: mean optical density, expressed as percentage relative to the mean optical density under the control condition (100%)
[19] = T24, 72 hours incubation, MTT, read-out: mean optical density, expressed as percentage relative to the mean optical density under the control condition (100%)

Row | SMILES | viability at 10 µM (MCF7; [2]) [%] | viability at 10 µM (T-47D; [3]) [%] | viability at 10 µM (HCT-15; [4]) [%] | viability at 10 µM (A-427; [5]) [%] | viability at 10 µM (U-87MG; [6]) [%] | viability at 10 µM (PC-3; [7]) [%] | viability at 10 µM (U-373MG; [8]) [%] | MTD at 14 day [1] [mg/kg] | viability at 10 µM (MCF7; [14]) [%] | viability at 10 µM (T-47D; [15]) [%] | viability at 10 µM (HCT-15; [16]) [%] | viability at 10 µM (A-427; [14]) [%] | viability at 10 µM (U-87MG; [17]) [%] | viability at 10 µM (PC-3; [14]) [%] | viability at 10 µM (U-373MG; [18]) [%] | viability at 10 µM (A549; [14]) [%] | viability at 10 µM (LoVo; [14]) [%] | viability at 10 µM (J82; [14]) [%] | viability at 10 µM (T24; [19]) [%] | viability at 10 µM (SW1088; [14]) [%] | also measured
1 | COc1ccc(-c2cn(C)c3cc(OC)cc(N4CCCC4)c3c2=O)cc1 [CRL8434, 7-Methoxy-3-(4-methoxyphenyl)-1-methyl-5-pyrrolidino-1,4-dihydro-4-quinolinone] | 96.2 | 85.8 | 101 | 110 | 89.7 | 113 | 92.2 | > 160 | – | – | – | – | – | – | – | – | – | – | – | – | viability at 10 µM (A549; [9]): 99%; viability at 10 µM (LoVo; [10]): 106%; viability at 10 µM (J82; [11]): 99.3%; viability at 10 µM (T24; [12]): 98.7%; viability at 10 µM (SW1088; [13]): 99.9%
2 | COc1ccc(-c2cn(C)c3cc(OC)cc(N4CCOCC4)c3c2=O)cc1 [CRL8435, 7-Methoxy-3-(4-methoxyphenyl)-1-methyl-5-morpholino-1,4-dihydro-4-quinolinone] | 93.6 | 95.7 | 101 | 115 | 85 | 105 | 85 | > 160 | – | – | – | – | – | – | – | – | – | – | – | – | viability at 10 µM (A549; [9]): 96.7%; viability at 10 µM (LoVo; [10]): 106%; viability at 10 µM (J82; [11]): 100%; viability at 10 µM (T24; [12]): 89.4%; viability at 10 µM (SW1088; [13]): 97.3%
3 | COc1ccc(-c2cn(C)c3cc(OC)cc(N4CCN(C)CC4)c3c2=O)cc1 [CRL8436, 7-Methoxy-3-(4-methoxyphenyl)-1-methyl-5-(1-methyl-piperazino)-1,4-dihydro-4-quinolinone] | – | – | – | – | – | – | – | > 160 | 96.4 | 89.4 | 101 | 109 | 97.3 | 99.9 | 97.2 | 101 | 108 | 101 | 99.2 | 102 | –
4 | CCN(CC)c1cc(OC)cc2c1c(=O)c(-c1ccc(OC)cc1)cn2C [CRL8437, 5-Diethylamino-7-methoxy-3-(4-methoxyphenyl)-1-methyl-1,4-dihydro-4-quinolinone] | – | – | – | – | – | – | – | > 160 | 97.7 | 92.1 | 110 | 108 | 99.4 | 94.1 | 93.2 | 102 | 105 | 98.7 | 93.1 | 99.7 | –
5 | CC(=O)Oc1ccc(-c2cn(C)c3c(OC(C)=O)ccc(OC(C)=O)c3c2=O)cc1 [CRL8460, 5,8-Diacetoxy-3-[4-(acetoxy)phenyl]-1-methyl-1,4-dihydro-4-quinolmone acetate] | – | – | – | – | – | – | – | > 160 | 35 | 56.2 | 53.7 | 24.9 | 71.5 | 35.2 | 52.2 | 43.1 | 25.5 | 45.7 | 14.2 | 65.7 | –
6 | COc1ccc(-c2cn(C)c3cc(OC)cc(N)c3c2=O)cc1 [CRL8461, 5-Amino-7-methoxy-3-(4-methoxyphenyl)-1-methyl-1,4-dihydro-4-quinolinone] | – | – | – | – | – | – | – | > 160 | 68.2 | 51.9 | 88.5 | 90.5 | 77.2 | 91.9 | 91.6 | 99.7 | 92.7 | 94.9 | 107 | 91.9 | –
